Series [1] is described as follows: Excitation and fluorescence emission wavelengths of the dyes (FIG. 2). In kind it is physicochemical. The text has this:
Looking to FIG. 2 in this regard, the excitation signal for fluorescein dye is represented at curve 30 which is an excitation signal at less than about 500 nanometers (nm). A resultant fluorescence emission from the excitation at 30 is shown at curve 32, at a wavelength of about 525 nm.
(§1) Looking to the ICG dye spectrum, an excitation curve is shown at 34, having a peak excitation wavelength at about 785 nanometers. Correspondingly, the fluorescence emission from excitation at curve 34 is represented at curve 36 with a peak emission wavelength of about 830 nanometers. Directed across FIG. 2 is a curve 38 representing the level of constant signal attenuation or absorption of about 37% resulting from passage of signal through tissue. Note that if a blood vessel is about one millimeter beneath the surface of skin, the system would perform at about 37% of the original intensity of the excitation signal and fluorescence signal for the case of ICG dye indicator. In contrast, a 37% decrease in excitation and emission signal level would result for the fluorescein dye indicator at a tissue thickness of only 0.25 mm. Since the blood vessels being targeted are at least 1 mm below the skin surface, the attenuation and associated signal loss would be much larger. Therefore, ICG dye is the preferred indicator.
When an ICG indicator within the bloodstream reaches the site of irradiation with 785 nm (laser) light, the fluorescent moiety within the ICG indicator is excited as described in connection with FIG. 2 to an elevated energy state for a brief period. As the excited moiety returns to its normal energy state, it emits light at a longer wavelength (viz., 830 nm) and the difference between the excitation wavelength (viz., 785 nm) and the fluorescence emission wavelength (viz., 830 nm) is known as the Stokes Shift. This Stokes Shift of nominally 45 nm allows the fluoresce emission to be extracted by using a interferential or other type of optical filter to reflect or otherwise attenuate all but the wavelength band of interest (viz., 820 to 840 nm).

Series [2] is described as follows: Excitation and fluorescence signal attenuation through tissue versus depth of artery (FIG. 2). To be noted: FIG. 2 curve 38. In kind it is physicochemical.
Excerpt: as §1
Turning again to the ICG dye spectrum, note that the excitation signal 34 for ICG intersects curve 38 at a depth allowing for readily reaching blood vessels, for example within the pinna (e.g., scaphoid fossa) of the ear. Accordingly, ICG dye is usable as a circulatory tracking agent when detecting through skin, and ICG dye was the indicator elected for subsequent study.

Where a name gives a salt, the structure may show the parent alone.

On to `CC1(C)C(/C=C/C=C/C=C/C=C2\N(CCCCS(=O)(=O)O)c3ccc4ccccc4c3C2(C)C)=[N+](CCCCS(=O)(=O)[O-])c2ccc3ccccc3c21` [ICG, 2-[7-[1,1-dimethyl-3-(4-sulfobutyl)benz[e]indolin-2-ylidene]-1,3,5-heptatrienyl]-1,1-dimethyl-3-(4-sulfobutyl)-1H-benz[e]indolium hydroxide, inner salt, sodium salt], for which, in series [1] (FIG. 2), the excitation wavelength result is “about 785 nm” and the fluorescence emission wavelength result was “about 830 nm”. In series [1] (difference between excitation and fluorescence emission wavelength), the “Stokes Shift” value is reported as roughly 45 nm. For the same compound, the “tissue depth at constant signal attenuation of about 37%” value in series [2] is given as “about one”.

These data come from patent US20140128733A1, “SYSTEMS AND METHODS FOR HEMODYNAMIC DETECTION OF CIRCULATORY ANOMALIES” (Cardiox Corporation, priority 2008, published 2014).
